Key:
Oryza sativa = assay: Test Method 1: soil application in paddy fields, phytotoxicity on transplanted paddy field rice plants; type: in vivo, Oryza sativa (variety: Koshihikari); details: 1 kg ai/ha, transplanted rice at two-leaf stage, assessed 28 days after application; also: ranges in brackets are in %
Method: (§1) Test Method 1 (Soil Application in Paddy Fields) A suitable amount of water and chemical fertiliser were added to paddy field soil. A plastic pot (1/5000 a; 200 cm2) was filled with a portion of this soil followed by kneading to convert it to a state of a paddy field. A stock of paddy field rice plant (variety: Koshihikari) comprising a pair of two seedlings, which had been grown in advance in a greenhouse to the stage of two leaves, was transplanted into each pot. Furthermore, in each pot, there were sown predetermined amounts of seeds of Echinochloa orizicola, Monochoria vaginalis var. plantaginea, Lindernia procumbens and Scirpus jundoides var. hotarui, respectively, and water was added to a depth of 3 cm. On the next day a wettable powder formula was prepared by the method described in the Formulation Example 2, and diluted with a suitable amount of water to give a concentration of active ingredient of 1 kg per ha. The diluted formula was applied by dropping with a pipette. After 28 days from the application with the chemicals, herbicidal effects on each weeds and phytotoxicity on paddy field rice plants were assessed according to the following criteria of Table 3. [table]

Lindemia procunbens = assay: Test Method 1: soil application in paddy fields, herbicidal efficacy; type: in vivo; details: 1 kg ai/ha, wettable powder applied to paddy water, assessed 28 days after application; also: ranges in brackets are in %
Method: as §1

Echinochloa oryzicola = assay: as above; type: in vivo; details: 1 kg ai/ha, wettable powder applied to paddy water, assessed 28 days after application; also: ranges in brackets are in %
Method: as §1

Scirpus juncoides = assay: as above; type: in vivo; details: 1 kg ai/ha, wettable powder applied to paddy water, assessed 28 days after application; also: ranges in brackets are in %
Method: as §1

Monochoria vaginalis = assay: as above; type: in vivo; details: 1 kg ai/ha, wettable powder applied to paddy water, assessed 28 days after application; also: ranges in brackets are in %
Method: as §1

Soya, Maize, Rice, Wheat = assay: Test Method 2: crop damage / selectivity, glass house pot test; type: in vivo, crop species; details: at levels of applications toxic to the weeds
Method: TEST METHOD 2 a) General Appropriate quantities of the compounds used to treat the plants were dissolved in acetone to give solutions equivalent to application rates of up to 250 g test compound per hectare (g/ha). These solutions were applied from an automatic laboratory herbicide sprayer delivering the equivalent of 720 liters of spray fluid per hectare. b) Weed control: Pre-emergence The seeds were sown in 70 mm square, 75 mm deep plastic pots in non-sterile soil, 3 species per pot. The quantities of seed per pot were as follows: [table] The compounds of the invention were applied to the soil surface, containing the seeds, as described in (a). Pots containing the species represented were allocated to each treatment, with unsprayed controls and controls sprayed with acetone alone. After treatment the pots were placed on capillary matting kept in a glass house, and watered overhead. Visual assessment of crop damage was made 17 days after spraying. The results were expressed as the percentage reduction in growth or damage to the crop or weeds, in comparison with the plants in the control pots.

SMILES | Phytotoxicity ORYSA (Oryza sativa) | Herbicidal efficacy (Point) LIDPY (Lindemia procunbens) | Herbicidal efficacy (Point) ECHOR (Echinochloa oryzicola) | Herbicidal efficacy (Point) SCPJU (Scirpus juncoides) | Herbicidal efficacy (Point) MOOVA (Monochoria vaginalis) | crop selectivity (Soya, Maize, Rice, Wheat) | Phytotoxicity ORYSA (Oryza sativa; listed as 5.146 E isomer) | Herbicidal efficacy (Point) LIDPY (Lindemia procunbens; listed as 5.146 E isomer) | Herbicidal efficacy (Point) ECHOR (Echinochloa oryzicola; listed as 5.146 E isomer) | Phytotoxicity ORYSA (Oryza sativa; listed as 5.146 Z isomer) | Herbicidal efficacy (Point) LIDPY (Lindemia procunbens; listed as 5.146 Z isomer) | Herbicidal efficacy (Point) ECHOR (Echinochloa oryzicola; listed as 5.146 Z isomer)
COC=C(Oc1ccc(Cl)cc1CBr)C(=O)OC [Compound 1.73] | 2 (10-20) | 7 (60-70) | 10 (90-100) | 9 (80-90) | 10 (90-100) | selective in at least one crop species | – | – | – | – | – | –
COC=C(Oc1ccc(Cl)cc1CO)C(=O)OC [Compound 1.313, Methyl 2-(2-Hydroxymethyl-4-chlorophenoxy)-3-methoxyacrylate] | 3 (20-30) | 10 (90-100) | 10 (90-100) | 10 (90-100) | 10 (90-100) | selective in at least one crop species | – | – | – | – | – | –
COC=C(Oc1ccccc1COc1ccccc1C)C(=O)OC [Compound 2.6, Methyl 2-[2-(2-Methylphenoxy)methylphenoxy]-3-methoxyacrylate] | 3 (20-30) | 8 (70-80) | 10 (90-100) | 7 (60-70) | 10 (90-100) | – | – | – | – | – | – | –
COC=C(Oc1ccc(Cl)cc1COc1ccccc1C)C(=O)OC [Compound 2.129] | 2 (10-20) | 9 (80-90) | 10 (90-100) | 8 (70-80) | 10 (90-100) | selective in at least one crop species | – | – | – | – | – | –
COC=C(Oc1ccc(Cl)cc1COc1ccccc1C)C(=O)O [Compound 2.135, 2-[4-Chloro-2-(2-methylphenoxymethyl)]phenoxy-3-methoxyacrylic Acid] | 0 (0) | 0 (0) | 4 (30-40) | 4 (30-40) | 9 (80-90) | – | – | – | – | – | – | –
COC=C(Oc1ccc(Cl)cc1COC(C)=O)C(=O)OC [Compound 2.619, Methyl 2-(2-Acetyloxymethyl-4-chlorophenoxy)-3-methoxyacrylate] | 3 (20-30) | 10 (90-100) | 10 (90-100) | 9 (80-90) | 10 (90-100) | selective in at least one crop species | – | – | – | – | – | –
COC=C(Oc1ccc(Cl)cc1CON=C(C)C)C(=O)OC [Compound 4.61] | 1 (0-10) | 10 (90-100) | 10 (90-100) | 9 (80-90) | 9 (80-90) | – | – | – | – | – | – | –
COC=C(Oc1ccccc1CON=C(C)c1ccc(Cl)cc1)C(=O)OC [Compound 4.68] | 3 (20-30) | 8 (70-80) | 10 (90-100) | 6 (50-60) | 10 (90-100) | – | – | – | – | – | – | –
COC=C(Oc1ccc(Cl)cc1CON=C(C)c1ccc(Cl)cc1)C(=O)OC [Compound 4.71] | 3 (20-30) | 9 (80-90) | 10 (90-100) | 9 (80-90) | 10 (90-100) | selective in at least one crop species | – | – | – | – | – | –
COC=C(Oc1ccccc1CON=C(C)OCc1ccccc1)C(=O)OC [Compound 4.99] | 3 (20-30) | 8 (70-80) | 9 (80-90) | 5 (40-50) | 10 (90-100) | – | – | – | – | – | – | –
COC=C(Oc1ccc(Cl)cc1CON=C(C)OCc1ccccc1)C(=O)OC [Compound 4.107] | 1 (0-10) | 5 (40-50) | 10 (90-100) | 9 (80-90) | 10 (90-100) | selective in at least one crop species | – | – | – | – | – | –
CCC(=NOCc1ccccc1)OCc1ccccc1OC(=COC)C(=O)OC [Compound 5.146 E isomer, Methyl 2-{2-[(1-Benzyloxyiminopropyl)oxymethyl]phenoxy}-3-methoxyacrylate] | – | – | – | – | – | – | 2 (10-20) | 8 (70-80) | 9 (80-90) | – | – | –
CCC(=NOCc1ccccc1)OCc1ccccc1OC(=COC)C(=O)OC [Compound 5.146 Z isomer, Methyl 2-{2-[(1-Benzyloxyiminopropyl)oxymethyl]phenoxy}-3-methoxyacrylate] | – | – | – | 3 (20-30) | 10 (90-100) | – | – | – | – | 3 (20-30) | 9 (80-90) | 10 (90-100)
CCC(=NOCc1ccccc1)OCc1cc(Cl)ccc1OC(=COC)C(=O)OC [Compound 5.541 E isomer] | 1 (0-10) | 10 (90-100) | 10 (90-100) | 9 (80-90) | 10 (90-100) | selective in at least one crop species | – | – | – | – | – | –
